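48-hour exposure; five concentrations; linearly interpolated endpoints. GI50 marks 50% less growth. TGI marks complete inhibition of growth.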
Assays:
Test in all cases: inhibition of tumour cell growth, NCI panel, 48 h
A498 renal = system: A498 renal
COLO 205 colon = system: COLO 205 colon
HCT-116 colon = system: HCT-116 colon
HOP-62 NSCLC = system: HOP-62 NSCLC
NCI-H522 lung = system: NCI-H522 lung
UACC-257 melanoma = system: UACC-257 melanoma
CAKI-1 renal = system: CAKI-1 renal
IGROV1 ovarian = system: IGROV1 ovarian
MCF7 breast = system: MCF7 breast
PC-3 prostate = system: PC-3 prostate

Compound | TGI (A498 renal) | TGI (COLO 205 colon) | TGI (HCT-116 colon) | TGI (HOP-62 NSCLC) | TGI (NCI-H522 lung) | TGI (UACC-257 melanoma) | GI50 (CAKI-1 renal) | TGI (CAKI-1 renal) | GI50 (COLO 205 colon) | GI50 (HCT-116 colon) | GI50 (HOP-62 NSCLC) | GI50 (IGROV1 ovarian) | TGI (IGROV1 ovarian) | GI50 (MCF7 breast) | TGI (MCF7 breast) | TGI (PC-3 prostate) | GI50 (UACC-257 melanoma) | GI50 (A498 renal) | GI50 (PC-3 prostate) | GI50 (NCI-H522 lung)
O=C1OC2CCCC[C@@H]2C2C[C@]34CCCCC3[C@@H](C(=O)O4)C12 (stereo not given in full) | > 100 µM | > 100 µM | > 100 µM | > 100 µM | > 100 µM | > 100 µM | – | – | – | – | – | – | – | – | – | – | – | – | – | –
Nc1ccn(C2CCC(CO)O2)c(=O)n1 (stereo not given) | – | > 1000 µM | > 1000 µM | > 1000 µM | > 1000 µM | > 1000 µM | > 1000 µM | > 1000 µM | > 1000 µM | > 1000 µM | > 1000 µM | > 1000 µM | > 1000 µM | > 1000 µM | > 1000 µM | > 1000 µM | > 1000 µM | – | – | –
CCN(CC)c1ccc(N=Nc2ccc(-c3nc4ccc[n+](C)c4s3)cc2)cc1 | 26.6 µM | 11.4 µM | 20.5 µM | 38.9 µM | 28.5 µM | 24.1 µM | – | 40.3 µM | – | – | – | – | 46.2 µM | – | – | – | – | – | – | –
COc1cc(/C=C/c2cc(/C=C/c3ccc(O)c(OC)c3)n(C(=O)Nc3ccc(C)cc3C)n2)ccc1O | 1.93 µM | 3.38 µM | – | 1.54 µM | – | 5.25 µM | 0.367 µM | 5.09 µM | 1.9 µM | – | 0.442 µM | 0.464 µM | 2.76 µM | 0.317 µM | 1.37 µM | 5.01 µM | 1.46 µM | 0.538 µM | 0.379 µM | –
CC(C)(C)c1cc(C(O)(C(F)(F)F)C(F)(F)F)c2c(c1)C(C(F)(F)F)(C(F)(F)F)OC(C(C)(C)C)N2 (stereo not given) | – | 13.5 µM | 12.8 µM | – | 7.39 µM | 9.48 µM | – | 8.45 µM | – | – | – | – | 18 µM | – | – | – | – | – | – | –
CCCCCCCCCCCCCCCCCCOc1ccccc1CC(=O)OCC[N+]1(C)CCCC1 | 8.82 µM | – | – | – | – | 9.12 µM | 1.6 µM | 4.05 µM | – | – | – | 1.52 µM | 3.06 µM | 2.11 µM | 4.76 µM | – | 2.82 µM | 2.18 µM | – | –
CCOC(=O)NC(=O)c1cn(CCCOC(=O)CCCCCCCCCCC(=O)OCCCn2cc(C(=O)NC(=O)OCC)c(=O)[nH]c2=O)c(=O)[nH]c1=O | – | > 100 µM | > 100 µM | > 100 µM | – | > 100 µM | – | – | – | – | – | – | > 100 µM | – | – | – | – | – | – | –
O=C1/C(=C/c2cccc([N+](=O)[O-])c2)COc2ccc(Br)cc21 | > 100 µM | > 100 µM | > 100 µM | > 100 µM | > 100 µM | > 100 µM | – | – | – | – | – | – | > 100 µM | – | – | – | – | – | – | –
COc1cc(/C=C(\C#N)c2ccccc2)cc(OC)c1 | – | > 100 µM | > 100 µM | > 100 µM | > 100 µM | 51 µM | – | > 100 µM | – | – | – | – | > 100 µM | – | – | – | – | – | – | –
Clc1ccc2c(c1)-c1c3c(nn1-c1ccccc1)-c1ccccc1SC3O2 (stereo not given) | > 100 µM | > 100 µM | > 100 µM | > 100 µM | 87.5 µM | > 100 µM | – | – | – | – | – | – | > 100 µM | – | – | – | – | – | – | –
C=CC/C=C/C/C=C/CCCCCCCc1cccc(O)c1C(=O)O | – | > 100 µM | > 100 µM | 67.5 µM | > 100 µM | > 100 µM | – | > 100 µM | – | – | – | – | > 100 µM | – | – | – | – | – | – | –
CN(C)c1cc[c]([Sn]([c]2ccc(N(C)C)cc2)([c]2ccc(N(C)C)cc2)[c]2ccc(N(C)C)cc2)cc1 | 20.3 µM | 17.7 µM | 13.9 µM | – | – | – | 5.13 µM | 19.4 µM | 4.19 µM | 3.94 µM | – | 5.25 µM | 19.6 µM | – | – | – | – | 7.47 µM | – | –
Nc1ccc(-c2nc3ccc(Cc4ccc5nc(-c6ccc(N)cc6)[nH]c5c4)cc3[nH]2)cc1 | 21.4 µM | 3.2 µM | – | 35 µM | 4.87 µM | 45.7 µM | 45.6 µM | > 100 µM | 1.65 µM | – | 6.53 µM | 16.9 µM | 39.8 µM | – | – | 20.1 µM | 20.6 µM | 0.855 µM | 4.25 µM | 1.97 µM
N#CC1CC2(C1)OCCS2 (stereo not given) | > 100 µM | > 100 µM | > 100 µM | > 100 µM | > 100 µM | > 100 µM | – | > 100 µM | – | – | – | – | > 100 µM | – | – | – | – | – | – | –
O=C1[C@@H]2C(c3ccccc3F)=NO[C@@H]2C(=O)N1c1ccc(Cc2ccc(N3C(=O)[C@H]4C(c5ccccc5F)=NO[C@H]4C3=O)cc2)cc1 | > 100 µM | > 100 µM | > 100 µM | > 100 µM | > 100 µM | > 100 µM | – | > 100 µM | – | – | – | – | > 100 µM | – | – | – | – | – | – | –
NC(=O)NCc1c(C(N)=O)ncn1Cc1ccccc1 | > 100 µM | > 100 µM | > 100 µM | > 100 µM | – | > 100 µM | – | > 100 µM | – | – | – | – | > 100 µM | – | – | – | – | – | – | –
Cc1c(C(=O)/C=C/c2ccccc2)[n+](=O)c2ccccc2n1[O-] | 31.3 µM | 29.8 µM | 32.4 µM | 37.9 µM | 19.4 µM | 31.3 µM | – | 45.7 µM | – | – | – | – | 45.2 µM | – | – | – | – | – | – | –
O=C(c1ccccc1)C1OC12C(=O)Nc1ccccc12 (stereo not given) | > 100 µM | 34.5 µM | > 100 µM | > 100 µM | 28.2 µM | > 100 µM | – | 46 µM | – | – | – | – | > 100 µM | – | – | – | – | – | – | –
O=C(CCC1OCCO1)Nc1cc(NCc2ccccc2)ccc1OCc1ccccc1 | > 100 µM | 52.1 µM | > 100 µM | > 100 µM | 78.6 µM | 53.3 µM | – | 71.3 µM | – | – | – | – | > 100 µM | – | > 100 µM | – | – | – | – | –
O=C(Nc1c(Cl)cc([N+](=O)[O-])cc1Cl)C(=O)C(C1OC(=O)c2ccccc21)[N+](=O)[O-] (stereo not given) | > 100 µM | > 100 µM | > 100 µM | > 100 µM | – | > 100 µM | – | > 100 µM | – | – | – | – | > 100 µM | – | – | – | – | – | – | –
C1CCC([PH+](C2CCCCC2)C2CCCCC2[PH+](C2CCCCC2)C2CCCCC2)CC1.O=C(C1[CH-]CCCC1)C1CCCC[N-]1.[Au] (stereo not given) | 0.584 µM | – | – | 2.96 µM | – | 3.36 µM | 1.07 µM | 2.72 µM | – | – | 0.323 µM | – | – | – | – | 3.8 µM | 0.337 µM | 0.0757 µM | 0.218 µM | –
CC(=O)N[C@H]1CSSC[C@@H](C(N)=O)NC(=O)[C@H](C(C)C)NC(=O)[C@H](C)NC(=O)[C@H](Cc2cnc[nH]2)NC1=O | – | > 100 µM | – | > 100 µM | > 100 µM | > 100 µM | > 100 µM | > 100 µM | > 100 µM | – | > 100 µM | > 100 µM | > 100 µM | – | – | > 100 µM | > 100 µM | – | > 100 µM | > 100 µM

Source: PubChem BioAssay (NCI)
